Source: PMC4110978 (Expert opinion on drug metabolism & toxicology, 2009)

What was measured:
rat hepatocytes = assay: Metabolic clearance in 3D perfused bioreactor; conditions: day 6, two experiments; probe incubated 24 h; disappearance by LC/MS/MS
human hepatocytes = assay: Metabolic clearance in 3D perfused bioreactor; conditions: day 4, four experiments; probe incubated 24 h; disappearance by LC/MS/MS

Row | Compound | Clearance values, Rat LiverChip (rat hepatocytes) | Clearance values, Human LiverChip (human hepatocytes)
1 | C=CCN1CC[C@]23c4c5ccc(O)c4O[C@H]2C(=O)CC[C@@]3(O)[C@H]1C5 [Naloxone] | 39 µL per min, per million cells | 29 µL per min, per million cells
2 | Cc1ncc2n1-c1ccc(Cl)cc1C(c1ccccc1F)=NC2 [Midazolam] | 38 µL per min, per million cells | 13 µL per min, per million cells
